Results: ChEMBL document CHEMBL3992487 (Medchemcomm, 2016)

Tests used:
[1] = Dissociation constant, pKa of the compound; assay type: physicochemical
[2] = Intrinsic clearance in human liver microsomes; assay type: ADME, microsome; conditions: read-out: CLH
[3] = Intrinsic clearance in human hepatocytes assessed per million cells; assay type: ADME, cell-based, Hepatocyte; conditions: read-out: CLH
[4] = Clearance in rat blood; assay type: ADME
[5] = Oral bioavailability in rat; assay type: ADME, organism-based; conditions: in vivo

## COC[C@@](C)(N)c1nc(-c2ccc(OC(F)(F)F)cc2)c[nH]1
[1]
  pKa: 7.1

## NC(CF)(CF)c1nc(-c2ccc(OC(F)(F)F)cc2)c[nH]1
[1]
  pKa: 5.9

## CC(C)(N)c1nc(-c2ccc(OC(F)(F)F)cc2)c[nH]1
[1]
  pKa: 7.9
[2]
  microsomal CLint: 8 µL/min/mg
[3]
  hepatocyte CLint: < 6 µL/min/1e6 cells

## NC1(Cc2nc(-c3ccc(OC(F)(F)F)cc3)c[nH]2)COC1
[1]
  pKa: 6.4
[4]
  clearance: 5 mL/min/kg
[5]
  bioavailability: 49 to 52%

## C[C@](N)(CF)c1nc(-c2ccc(OC(F)(F)F)cc2)c[nH]1
[1]
  pKa: 6.4
